Laboratory results from EP4775582A1, “MACROCYCLIC COMPOUND AND ANTIBODY-DRUG CONJUGATE THEREOF” (Genfleet Therapeutics (Shanghai) Inc., priority 2023, dated 2025).
pIC50: −log10 of the molar value. In brackets after ≈: the same amount, converted by molar mass. Read-outs that look alike come from different tables or passages of the source.

Tests used:
[1] = tested on: H441 p-ERK; test: Cell p-ERK assay (HTRF), NCI-H441 cells; assay type: cell-based, human; details: NCI-H441 cells (KRAS G12V), 3 h incubation
Procedure, shortened: (§1)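 AsPC-1 (10000/well) or NCI-H441 (20000/well) cells were seeded overnight and then exposed to compound for 3 h at 37 °C. Lysates were probed for ERK phospho-T202/Y204 by HTRF with a 4-hour antibody incubation. IC50 values came from four-parameter fits of inhibition against log concentration.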

[2] = tested on: AsPC-1 p-ERK; test: Cell p-ERK assay (HTRF), AsPC-1 cells; assay type: cell-based, human; details: for pIC50: AsPC-1 cells (KRAS G12D), 3 h incubation, read-out: AsPC-1 p-ERK IC50
Procedure, shortened: as §1

[3] = tested on: NCI-H441 cells; test: 3D cell proliferation assay (CellTiter Glo-3D), NCI-H441; assay type: cell-based, human; details: NCI-H441 cells (KRAS G12V), 2% FBS, 5 days, read-out: H441 AP IC50
Procedure, shortened: (§2)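 Cells seeded at 800 per well (AsPC-1, NCI-H441) in 2% FBS medium and incubated overnight at 37 °C, 5% CO2. Compounds added next day from 10× stock, then 5 days' further culture. Viability read by CellTiter-Glo luminescence; IC50 from four-parameter fit of inhibition versus log concentration.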

[4] = tested on: AsPC-1 cells; test: 3D cell proliferation assay (CellTiter Glo-3D), AsPC-1; assay type: cell-based, human; details: for pIC50: AsPC-1 cells (KRAS G12D), 3D, 2% FBS, 5 days, read-out: AsPC-1 AP IC50
Procedure, shortened: as §2

[5] = Solubility experiment (HPLC, external standard); assay type: physicochemical; details: for solubility at 24 h: pH 7.4, pH 7.4 medium
Description: This experiment was intended to determine the solubility of the compounds in media at different pH values. The materials used in the experiment included: a pH 1.2 medium, a pH 4.5 medium, a pH 7.4 medium, and a diluent (acetonitrile/water = 50/50). 1. The preparation methods for media are as follows:
One centrifuge tube (containing about 2 mg of the test sample) was taken, 1 mL of DMSO was added to completely dissolve the test sample, and the mixture was marked as stock-1. 0.2 mL of stock-1 was transferred into a 10 mL volumetric flask, and then the 50:50 (acetonitrile/water) solution was added to bring the volume to the mark, so as to give a control solution.
Additionally, centrifuge tubes each containing about 1 mg of the test sample were taken, 1 mL of the corresponding medium solution was then added, and the tubes were shaken on a 37 °C water bath shaker for 24 h. After centrifugation for 3 times (centrifugation time: 10 min, rotation speed: 12000 rpm), 0.2 mL of the supernatants were taken, 0.8 mL of the diluent (acetonitrile/water = 50/50) was added to each tube, and the mixtures were vortexed and mixed well to give solubility samples.
The solubility samples described above and the control solution were sequentially analyzed by high performance liquid chromatography. The chromatographic conditions are as follows:
The actual concentration of the compound in each solubility sample was calculated according to an external standard method. Concentration (μg/mL) = (ASample × CControl × DSample)/(AControl)∗1000; [formula] Asample: the peak area of the target peak in the sample solution; Ccontrol: the concentration (mg/mL) of the control solution; Dsample: the dilution factor of the sample solution; Acontrol: the peak area of the target peak in the control solution.

[6] = target: KRAS WT-cRAF (Homo sapiens, UniProt P01116+P62937); test: Assay for binding of KRAS to cRAF (HTRF, with Cyclophilin A), KRAS WT; details: for pIC50: read-out: KRAS WT-cRAF binding assay, GPPNP-KRAS WT, IC50 values; for IC50: KRAS WT-cRAF binding assay(nM), GPPNP-KRAS WT, IC50 values
Description: (§3) The plate was centrifuged at 1000 rpm for 1 min and then incubated in the thermostatic incubator at 20 °C for 30 min. […] The plate was centrifuged at 1000 rpm for 1 min and then incubated in the thermostatic incubator at 20 °C for 60 min. […] The working solution was added to the aforementioned assay plate at 5 µL/well. The plate was centrifuged at 1000 rpm for 1 min and then incubated in the thermostatic incubator at 20 °C for 60 min.

[7] = target: KRAS G12V-cRAF (Homo sapiens, UniProt P01116+P62937, G12V); test: Assay for binding of KRAS to cRAF (HTRF, with Cyclophilin A), KRAS G12V; details: for pIC50: read-out: KRAS G12V-cRAF binding assay, GPPNP-KRAS G12V, IC50 values; for IC50: KRAS G12V-cRAF binding assay(nM), GPPNP-KRAS G12V, IC50 values
Sequence of KRAS G12V-cRAF (P01116 1-188 isoform P01116-2 G12V): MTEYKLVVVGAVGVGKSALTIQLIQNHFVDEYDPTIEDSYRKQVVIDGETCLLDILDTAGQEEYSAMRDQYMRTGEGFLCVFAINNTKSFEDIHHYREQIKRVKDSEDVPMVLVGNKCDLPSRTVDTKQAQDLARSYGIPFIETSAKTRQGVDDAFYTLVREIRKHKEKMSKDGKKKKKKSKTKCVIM
Sequence of KRAS G12V-cRAF (P62937 whole entry): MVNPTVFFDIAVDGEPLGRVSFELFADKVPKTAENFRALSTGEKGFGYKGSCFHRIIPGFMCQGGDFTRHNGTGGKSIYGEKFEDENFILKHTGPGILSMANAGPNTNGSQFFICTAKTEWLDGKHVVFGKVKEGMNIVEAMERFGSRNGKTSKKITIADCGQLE
Description: as §3

Sequence of KRAS WT-cRAF (P01116 1-188 isoform P01116-2): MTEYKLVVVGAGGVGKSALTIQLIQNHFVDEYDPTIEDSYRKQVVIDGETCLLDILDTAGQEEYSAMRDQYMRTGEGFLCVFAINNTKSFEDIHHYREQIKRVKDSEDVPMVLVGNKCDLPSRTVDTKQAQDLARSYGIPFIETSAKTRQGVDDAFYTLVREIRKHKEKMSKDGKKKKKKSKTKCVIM
Sequence of KRAS WT-cRAF (P62937 whole entry): as the sequence (P62937 whole entry) above

Structure (SMILES)	pIC50 ([1]; Homo sapiens)	IC50 ([2]; Homo sapiens, ASPC1, 3 h, read-out: AsPC-1 p-ERK IC50(nM))	pIC50 ([3]; Homo sapiens, 120 h)	IC50 ([4]; Homo sapiens, ASPC1, 120 h, read-out: AsPC-1 AP IC50(nM))	Solubility at pH 7.4 (µg/mL) ([5]; ph 7.4 medium, pH 7.4, 1440 min)	pIC50 [6]	pIC50 [7]	pIC50 ([2]; Homo sapiens, ASPC1)	pIC50 ([4]; Homo sapiens, ASPC1, 120 h)	solubility at 24 h ([5]; pH 7.4 medium, 37 °C, 24 h)	IC50 [6]	IC50 [7]	pIC50 [1]	pIC50 [2]	pIC50 [3]	pIC50 [4]	Solubility at pH 7.4 (µg/mL) ([5]; pH 7.4 medium, 37 °C, 24 h)
CCn1c(-c2cc(C#CCN3CCN(C(=O)CO)CC3)c[n+]([O-])c2C(C)OC)c2c3cc(ccc31)-c1csc(n1)CC(NC(=O)C1C(C)C1C)C(=O)N1CCCC(N1)C(=O)OCC(C)(C)C2 (atropisomer, axis not shown; (Ra)) [Compound Z48, (Ra)-3-((6^3S,4S,Z)-4-((1r,2R,3S)-2,3-dimethylcyclopropane-1-carboxamido)-1^1-ethyl-10,10-dimethyl-5,7-dioxo-6^1,6^2,6^3,6^4,6^5,6^6-hexahydro-1^1H-8-oxa-2(4,2)-thiazola-1(5,3)-indola-6(1,3)-pyridazinacycloundecaphane-1^2-yl)-5-(3-(4-(2-hydroxyacetyl)piperazin-1-yl)prop-1-yn-1-yl)-2-((S)-1-methoxyethyl)pyridine 1-oxide]	8.78	–	8.70	–	–	–	–	8.33	8.30	71.2 µg/mL (≈ 77.1 µM)	31.3 nM	9.05 nM	–	–	–	–	–
COCCn1c(-c2cc(C#CCN3CCC(C#N)(CO)CC3)c[n+]([O-])c2C(C)OC)c2c3cc(ccc31)-c1csc(n1)CC(NC(=O)C1C(C)C1C)C(=O)N1CCCC(N1)C(=O)OCC(C)(C)C2 (atropisomer, axis not shown; (Ra)) [Compound Z42-1, 5-(3-(4-cyano-4-(hydroxymethyl)piperidin-1-yl)prop-1-yn-1-yl)-(Ra)-3-((6^3S,4S,Z)-4-((1r,2R,3S)-2,3-dimethylcyclopropane-1-carboxamido)-1^1-(2-methoxyethyl)-10,10-dimethyl-5,7-dioxo-6^1,6^2,6^3,6^4,6^5,6^6-hexahydro-1^1H-8-oxa-2(4,2)-thiazola-1(5,3)-indola-6(1,3)-pyridazinacycloundecaphane-1^2-yl)-2-((S)-1-methoxyethyl)pyridine 1-oxide]	8.74	–	9.19	–	–	–	–	8.88	9.48	15.6 µg/mL (≈ 16.4 µM)	18.9 nM	9.9 nM	–	–	–	–	–
CCn1c(-c2cc(C#CC(CO)N3CCS(=O)(=O)CC3)cnc2C(C)OC)c2c3cc(ccc31)-c1csc(n1)CC(NC(=O)C1C3COCC31)C(=O)N1CCCC(N1)C(=O)OCC(C)(C)C2 (atropisomer, axis not shown; (Ra)) [Compound Z40, (1R,5S,6r)-N-((6^3S,4S,Z)-(Ra)-1^2-(5-(3-(1,1-dioxidothiomorpholino)-4-hydroxybut-1-yn-1-yl)-(Ra)-2-((S)-1-methoxyethyl)-pyridin-3-yl)-1^1-ethyl-10,10-dimethyl-5,7-dioxo-6^1,6^2,6^3,6^4,6^5,6^6-hexahydro-1^1H-8-oxa-2(4,2)-thiazola-1(5,3)-indola-6(1,3)-pyridazinacycloundecaphane-4-yl)-3-oxabicyclo[3.1.0]hexane-6-carboxamide]	9.35	–	9.40	–	–	–	–	9.42	9.37	5.1 µg/mL (≈ 5.41 µM)	14.3 nM	7.8 nM	–	–	–	–	–
CCn1c(-c2cc(C#CCN3CCN(C(=O)CO)CC3)cnc2[C@H](C)OC)c2c3cc(ccc31)-c1csc(n1)C[C@H](NC(=O)[C@H]1[C@@H]3COC[C@@H]31)C(=O)N1CCC[C@H](N1)C(=O)OCC(C)(C)C2 (atropisomer, axis not shown; (Ra)) [Compound Z34, (1R,5S,6r)-N-((6^3S,4S,Z)-1^1-ethyl-1^2-(5-(3-(4-(2-hydroxyacetyl)piperazin-1-yl)prop-1-yn-1-yl)-(Ra)-2-((S)-1-methoxyethyl)pyridin-3-yl)-10,10-dimethyl-5,7-dioxo-6^1,6^2,6^3,6^4,6^5,6^6-hexahydro-1^1H-8-oxa-2(4,2)-thiazola-1(5,3)-indola-6(1,3)-pyridazinacycloundecaphane-4-yl)-3-oxabicyclo[3.1.0]hexane-6-carboxamide]	–	–	–	–	–	7.60	7.77	–	–	–	–	–	9.57	9.55	9.33	9.11	16.22 µg/mL

Next, values leading:

pIC50 ([1]; Homo sapiens)	IC50 ([2]; Homo sapiens, ASPC1, 3 h, read-out: AsPC-1 p-ERK IC50(nM))	pIC50 ([3]; Homo sapiens, 120 h)	IC50 ([4]; Homo sapiens, ASPC1, 120 h, read-out: AsPC-1 AP IC50(nM))	Solubility at pH 7.4 (µg/mL) ([5]; ph 7.4 medium, pH 7.4, 1440 min)	pIC50 [6]	pIC50 [7]	pIC50 ([2]; Homo sapiens, ASPC1)	pIC50 ([4]; Homo sapiens, ASPC1, 120 h)	solubility at 24 h ([5]; pH 7.4 medium, 37 °C, 24 h)	IC50 [6]	IC50 [7]	pIC50 [1]	pIC50 [2]	pIC50 [3]	pIC50 [4]	Solubility at pH 7.4 (µg/mL) ([5]; pH 7.4 medium, 37 °C, 24 h)	Structure (SMILES)
9.49	0.3 nM	9.96	0.12 nM	66.54 µg/mL	7.71	8.07	–	–	–	–	–	–	–	–	–	–	CCn1c(-c2cc(C#CCN3CCS(=O)(=O)CC3)cnc2[C@H](C)NC)c2c3cc(ccc31)-c1csc(n1)C[C@H](NC(=O)[C@H]1[C@H](C)[C@@H]1C)C(=O)N1CCC[C@H](N1)C(=O)OCC(C)(C)C2 (atropisomer, axis not shown; (Ra)) [Compound Z66, (1r,2R,3S)-N-((6^3S,4S,Z)-(Ra)-1^2-(5-(3-(1,1-dioxidothiomorpholino)prop-1-yn-1-yl)-2-((S)-1-(methylamino)ethyl)pyridin-3-yl)-1^1-ethyl-10,10-dimethyl-5,7-dioxo-6^1,6^2,6^3,6^4,6^5,6^6-hexahydro-1^1H-8-oxa-2(4,2)-thiazola-1(5,3)-indola-6(1,3)-pyridazinacycloundecaphane-4-yl)-2,3-dimethylcyclopropane-1-carboxamide]
9.68	–	9.55	–	–	–	–	9.82	9.51	7.8 µg/mL (≈ 8.6 µM)	19.2 nM	10.7 nM	–	–	–	–	–	CCn1c(-c2cc(C#CCN3CCN(C(=O)CO)CC3)cnc2C(C)OC)c2c3cc(ccc31)-c1csc(n1)CC(NC(=O)C1C(C)C1C)C(=O)N1CCCC(N1)C(=O)OCC(C)(C)C2 (atropisomer, axis not shown; (Ra)) [Compound Z6, (1r,2R,3S)-N-((6^3S,4S,Z)-1^1-ethyl-(Ra)-1^2-(5-(3-(4-(2-hydroxyacetyl)piperazin-1-yl)prop-1-yn-1-yl)-2-((S)-1-methoxyethyl)pyridin-3-yl)-10,10-dimethyl-5,7-dioxo-6^1,6^2,6^3,6^4,6^5,6^6-hexahydro-1^1H-8-oxa-2(4,2)-thiazola-1(5,3)-indola-6(1,3)-pyridazinacycloundecaphane-4-yl)-2,3-dimethylcyclopropane-1-carboxamide]
9.38	–	9.42	–	–	–	–	8.76	8.92	55.8 µg/mL (≈ 61.6 µM)	25.2 nM	11.8 nM	–	–	–	–	–	CCn1c(-c2cc(C#CCN3CCN(C(=O)CO)CC3)cnc2C(C)OC)c2c3cc(ccc31)-c1coc(n1)CC(NC(=O)C1C3COCC31)C(=O)N1CCCC(N1)C(=O)OCC(C)(C)C2 (atropisomer, axis not shown; (Ra)) [Compound Z44, (1R,5S,6r)-N-((6^3S,4S,Z)-(Ra)-1^2-(5-(3-(4-(2-hydroxyacetyl)piperazin-1-yl)prop-1-yn-1-yl)-2-((S)-1-methoxyethyl)pyridin-3-yl)-1^1-ethyl-10,10-dimethyl-5,7-dioxo-6^1,6^2,6^3,6^4,6^5,6^6-hexahydro-1^1H-8-oxa-2(4,2)-oxazola-1(5,3)-indola-6(1,3)-pyridazinacycloundecaphane-4-yl)-3-oxabicyclo[3.1.0]hexane-6-carboxamide]
